Source: US9902696B2, “1,4-substituted piperidine derivatives” (Cephalon, Inc., priority 2015, dated 2018)
Where a name gives a salt, the structure may show the parent alone.

These compounds were tested against T1, recombinant human baculovirus-expressed GST-tagged FASN (Homo sapiens, UniProt P49327) (assay: FASN enzyme activity assay, fluorescence-based detection of CoA with CPM). Conditions: 5 nM FASN, 150 μM NADPH, 10 μM acetyl-CoA, 25 μM malonyl-CoA, 90 minutes incubation; read-out: IC50 data for Additional Compounds of Formulae I-V(a): Activity.
T1 construct: GST
T1 sequence (P49327 whole entry): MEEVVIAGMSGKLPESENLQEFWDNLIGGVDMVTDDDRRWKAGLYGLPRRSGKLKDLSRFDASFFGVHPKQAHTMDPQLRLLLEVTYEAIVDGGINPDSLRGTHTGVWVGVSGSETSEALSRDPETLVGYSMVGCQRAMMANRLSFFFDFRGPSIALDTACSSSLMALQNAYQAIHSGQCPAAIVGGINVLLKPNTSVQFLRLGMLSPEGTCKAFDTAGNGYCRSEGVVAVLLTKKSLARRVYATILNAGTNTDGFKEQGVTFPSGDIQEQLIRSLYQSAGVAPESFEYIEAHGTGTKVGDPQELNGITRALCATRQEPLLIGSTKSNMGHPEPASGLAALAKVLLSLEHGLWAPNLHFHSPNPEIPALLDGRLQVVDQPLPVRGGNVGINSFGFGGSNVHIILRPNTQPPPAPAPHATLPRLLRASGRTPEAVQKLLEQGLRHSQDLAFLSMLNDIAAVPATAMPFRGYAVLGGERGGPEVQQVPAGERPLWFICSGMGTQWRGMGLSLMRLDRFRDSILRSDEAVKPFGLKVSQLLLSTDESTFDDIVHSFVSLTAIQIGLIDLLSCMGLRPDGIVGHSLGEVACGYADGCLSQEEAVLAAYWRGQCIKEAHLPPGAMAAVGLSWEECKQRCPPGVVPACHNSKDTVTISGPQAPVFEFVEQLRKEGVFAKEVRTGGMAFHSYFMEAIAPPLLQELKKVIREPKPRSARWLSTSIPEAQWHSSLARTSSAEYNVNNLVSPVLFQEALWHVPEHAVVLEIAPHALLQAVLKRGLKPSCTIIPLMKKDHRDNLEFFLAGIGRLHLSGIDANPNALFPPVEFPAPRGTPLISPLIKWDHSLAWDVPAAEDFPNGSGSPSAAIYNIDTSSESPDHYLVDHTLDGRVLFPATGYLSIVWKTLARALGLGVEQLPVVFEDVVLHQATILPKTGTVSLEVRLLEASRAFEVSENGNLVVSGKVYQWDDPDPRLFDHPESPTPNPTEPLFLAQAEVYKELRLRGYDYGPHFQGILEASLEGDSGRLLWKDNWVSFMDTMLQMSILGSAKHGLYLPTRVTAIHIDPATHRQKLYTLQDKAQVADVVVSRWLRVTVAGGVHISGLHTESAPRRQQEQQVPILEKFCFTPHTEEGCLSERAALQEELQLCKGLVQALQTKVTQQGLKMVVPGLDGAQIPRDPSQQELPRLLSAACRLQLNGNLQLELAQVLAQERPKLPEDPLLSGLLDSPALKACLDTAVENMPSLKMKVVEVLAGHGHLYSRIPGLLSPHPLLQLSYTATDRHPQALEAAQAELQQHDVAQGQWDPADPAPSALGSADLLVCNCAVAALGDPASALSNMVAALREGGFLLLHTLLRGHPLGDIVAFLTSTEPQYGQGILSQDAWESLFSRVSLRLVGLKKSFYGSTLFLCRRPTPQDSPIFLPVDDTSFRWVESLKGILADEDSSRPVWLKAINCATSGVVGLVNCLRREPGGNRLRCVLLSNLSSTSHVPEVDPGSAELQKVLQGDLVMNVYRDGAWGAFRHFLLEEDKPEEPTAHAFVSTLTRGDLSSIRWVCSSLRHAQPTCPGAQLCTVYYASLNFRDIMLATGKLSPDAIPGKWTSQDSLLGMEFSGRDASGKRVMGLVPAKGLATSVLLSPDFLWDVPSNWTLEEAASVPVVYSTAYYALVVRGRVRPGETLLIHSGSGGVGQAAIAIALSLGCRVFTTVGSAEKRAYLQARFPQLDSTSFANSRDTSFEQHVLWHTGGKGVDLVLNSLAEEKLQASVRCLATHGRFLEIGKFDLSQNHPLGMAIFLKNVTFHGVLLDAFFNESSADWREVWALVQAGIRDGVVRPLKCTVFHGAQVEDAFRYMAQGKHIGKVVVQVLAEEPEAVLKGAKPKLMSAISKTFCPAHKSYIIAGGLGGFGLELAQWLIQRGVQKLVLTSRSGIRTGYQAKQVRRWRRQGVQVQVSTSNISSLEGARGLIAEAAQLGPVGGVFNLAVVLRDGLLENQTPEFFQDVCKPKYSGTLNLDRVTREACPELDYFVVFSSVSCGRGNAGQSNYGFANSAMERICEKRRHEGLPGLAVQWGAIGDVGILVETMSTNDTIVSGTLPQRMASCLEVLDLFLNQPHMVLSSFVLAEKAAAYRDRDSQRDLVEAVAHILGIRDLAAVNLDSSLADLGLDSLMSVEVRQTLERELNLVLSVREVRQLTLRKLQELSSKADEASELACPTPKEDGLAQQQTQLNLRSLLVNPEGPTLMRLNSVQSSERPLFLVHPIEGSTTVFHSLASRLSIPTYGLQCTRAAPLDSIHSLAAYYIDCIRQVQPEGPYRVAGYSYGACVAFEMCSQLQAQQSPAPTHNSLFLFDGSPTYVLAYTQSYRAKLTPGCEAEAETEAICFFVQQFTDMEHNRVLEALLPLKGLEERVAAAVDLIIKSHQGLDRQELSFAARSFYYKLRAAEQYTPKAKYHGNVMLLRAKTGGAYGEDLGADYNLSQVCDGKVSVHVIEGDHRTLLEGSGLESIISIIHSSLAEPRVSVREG
Assay type: biochemical
Description: FASN Enzyme activity may be determined by detecting coenzyme A (CoA), a product of FASN-catalyzed synthesis of palmitate from acetyl-CoA and malonyl-CoA with NADPH as a cofactor. The assay is fluorescence-based and measures the interaction of free CoA with 7-diethylamino-3-(4′-malemimidylphenyl)-4-methylcoumarin (CPM; Life Technologies, CA) as described in Chung et al (2008). The coumarin derivative CPM contains a thiol-reactive maleimide that becomes fluorescent upon interaction with the sulfhydryl group of CoA.
For the example compounds described herein, the reaction was performed in 384-well low volume non-binding plates (Corning, N.Y.) using recombinant human baculovirus-expressed GST-tagged FASN. The 20-μL assay mixture contained 50 mM HEPES (pH 7.5), 5 nM FASN, 150 μM NADPH (Sigma, St. Louis, Mo.), 10 μM acetyl-CoA (Sigma), 25 μM malonyl-CoA (Sigma) and test compound [diluted in dimethyl sulfoxide (DMSO); 0.5% DMSO final in assay after 100 nL addition]. See, Chung et al.; “A fluorescence-based thiol quantification assay for ultra-high-throughput screening for inhibitors of coenzyme A production,” Assay Drug Dev Tech 2008; 6:361-374.
The reaction was initiated by adding malonyl-CoA, followed by incubation for 90 minutes at […]. A stock solution of the CPM reagent was prepared in DMSO at […] and stored at […]. To detect CoA produced in the FASN reaction, the CPM stock was diluted to […] in 70% ethanol and added at 4 μL/well to the assay plate. The reaction mixture was then incubated for 30 minutes. Fluorescence was measured using the EnVision™ 2102 multi-label plate reader (PerkinElmer, Waltham, Mass.) utilizing a general dual mirror, a 390 nm excitation filter and a 530 nm emission filter. Data analysis was performed using ActivityBase (IDBS, Guilford, UK). IC50 values were calculated by plotting the percent inhibition versus log 10 of the concentration of the compound, and fitting to the nonlinear regression sigmoidal dose-response (variable slope) equation in XLFit (IDBS).
Cc1c(-c2ccc(OC3CCN(C(=O)NOC(C)C)CC3)cc2)ccc2ccnn12 [Example 537, N-Isopropoxy-4-[4-(7-methylpyrazolo[1,5-a]pyridin-6-yl)phenoxy]piperidine-1-carboxamide] showed an IC50 of 1 to 99 nM. With Cc1c(-c2ccc(OC3CCN(C(=O)[C@@H]4CCCN4C)CC3)cc2)ccc2cccnc12 [Example 617, [(2S)-1-Methylpyrrolidin-2-yl]-[4-[4-(8-methyl-7-quinolyl)phenoxy]-1-piperidyl]methanone] the IC50 was 1000 to 10000 nM.

Same assay, conditions: 5 nM FASN, 150 μM NADPH, 10 μM acetyl-CoA, 25 μM malonyl-CoA, 90 minutes incubation; read-out: IC50 data for Compounds of Formulae I-V/V(a): Activity
Cc1c(-c2ccc(OC3CCN(C(=O)C4(C)CC4)CC3)cc2)ccc2cccnc12 [Example 320, (1-Methylcyclopropyl)-{4-[4-(8-methyl-quinolin-7-yl)-phenoxy]-piperidin-1-yl}-methanone] gave an IC50 of 1 to 99 nM. In the case of O=C([C@H]1CCCO1)N1CCC(Oc2ccc(-c3cnc4ccccc4c3N3CCOCC3)cc2)CC1 [Example 238, {4-[4-(4-Morpholin-4-yl-quinolin-3-yl)-phenoxy]-piperidin-1-yl}-(R)-tetrahydrofuran-2-yl-methanone], the IC50 is reported as 100 to 999 nM. With CCC(=O)N1CCC(Oc2ccc(-c3ccc4c(Cl)ccnc4c3)cc2)CC1 [Example 259, 1-{4-[4-(4-Chloroquinolin-7-yl)-phenoxy]-piperidin-1-yl}-propan-1-one, TFA salt] the IC50 was 100 to 999 nM. With COc1cc2cc(-c3ccc(OC4CCN(C(=O)C5CC5)CC4)cc3)ccc2cn1 [Example 416, Cyclopropyl-{4-[4-(3-methoxyisoquinolin-6-yl)-phenoxy]-piperidin-1-yl}-methanone] the IC50 was 100 to 999 nM. CN(C)c1c(-c2ccc(OC3CCN(C(=O)[C@H]4CCCO4)CC3)cc2)ccc2cccnc12 [Example 331, [4-[4-[8-(Dimethylamino)-7-quinolyl]phenoxy]-1-piperidyl]-[(2R)-tetrahydro-furan-2-yl]methanone] was tested, and the IC50 was 1 to 99 nM. CCC(=O)N1CCC(Oc2ccc(-c3ccnc(Nc4ccccc4)c3)cc2)CC1 [Example 404, 1-{4-[4-(2-Phenylaminopyridin-4-yl)-phenoxy]-piperidin-1-yl}-propan-1-one] was tested, and the IC50 was 1000 to 10000 nM. With CC(C)C(=O)N1CCC(Sc2ccc(-c3cnc4ccccc4c3)cc2)CC1 [Example 522, 2-Methyl-1-(4-((4-(quinolin-3-yl)phenyl)thio)piperidin-1-yl)propan-1-one, HCl] the IC50 was 1000 to 10000 nM. CC1(C(=O)N2CCC(Oc3ccc(-c4cnc5ccccc5c4)cc3)CC2)OCCO1 [Example 116, (2-Methyl-1,3-dioxolan-2-yl)-[4-(4-quinolin-3-yl-phenoxy)-piperidin-1-yl]-methanone, HCl] showed an IC50 of 1 to 99 nM. With O=C(C1CC1)N1CCC(Oc2ccc(-c3ccc4cccnc4c3Cl)cc2)CC1 [Example 59, {4-[4-(8-Chloroquinolin-7-yl)-phenoxy]-piperidin-1-yl}-cyclopropyl-methanone] the IC50 was 1 to 99 nM. For CCC(=O)N1CCC(Oc2ccc(-c3ccc4cccnc4c3OCCN3CCN(C)CC3)cc2)CC1 [Example 177, 1-[4-[4-[8-[2-(4-Methylpiperazin-1-yl)ethoxy]-7-quinolyl]phenoxy]-1-piperidyl]propan-1-one, HCl], the IC50 was 1000 to 10000 nM. Compound O=C(C1CCC1)N1CCC(Oc2ccc(-c3ccc4ccccc4n3)cc2)CC1 [Example 41, Cyclobutyl-[4-(4-quinolin-2-yl-phenoxy)-piperidin-1-yl]-methanone] has an IC50 of 100 to 999 nM. Compound Cc1c(-c2ccc(OC3CCN(C(=O)[C@H]4CCCO4)C(C)C3)cc2)ccc2cccnc12 (mixture of isomers) [Example 362, {2-Methyl-4-[4-(8-methylquinolin-7-yl)-phenoxy]-piperidin-1-yl}-(R)-tetrahydrofuran-2-yl-methanone, HCl] has an IC50 of 1 to 99 nM. With CCC(=O)N1CCC(Oc2ccc(-c3ccc4cc(Cl)cnc4c3)cc2)CC1 [Example 266, 1-{4-[4-(3-Chloroquinolin-7-yl)-phenoxy]-piperidin-1-yl}-propan-1-one, TFA salt] the IC50 was 100 to 999 nM. O=C(C1CCCS1(=O)=O)N1CCC(Oc2ccc(-c3cnc4ccccc4c3)cc2)CC1 (stereo not shown) [Example 118, (1,1-Dioxidotetrahydrothiophen-2-yl)(4-(4-(quinolin-3-yl)phenoxy)piperidin-1-yl)methanone, HCl] was tested, and the IC50 was 1000 to 10000 nM.
